Consider one molecule from US20250171437A1 (Agios Pharmaceuticals,Inc., priority 2022, published 2025).

The test concerns the target T1, human PAH with the R408W mutation (A375 R408W cells) (Homo sapiens, UniProt P00439, R408W).
T1 construct: expressed in transfected cells
T1 sequence (P00439 1-452 R408W): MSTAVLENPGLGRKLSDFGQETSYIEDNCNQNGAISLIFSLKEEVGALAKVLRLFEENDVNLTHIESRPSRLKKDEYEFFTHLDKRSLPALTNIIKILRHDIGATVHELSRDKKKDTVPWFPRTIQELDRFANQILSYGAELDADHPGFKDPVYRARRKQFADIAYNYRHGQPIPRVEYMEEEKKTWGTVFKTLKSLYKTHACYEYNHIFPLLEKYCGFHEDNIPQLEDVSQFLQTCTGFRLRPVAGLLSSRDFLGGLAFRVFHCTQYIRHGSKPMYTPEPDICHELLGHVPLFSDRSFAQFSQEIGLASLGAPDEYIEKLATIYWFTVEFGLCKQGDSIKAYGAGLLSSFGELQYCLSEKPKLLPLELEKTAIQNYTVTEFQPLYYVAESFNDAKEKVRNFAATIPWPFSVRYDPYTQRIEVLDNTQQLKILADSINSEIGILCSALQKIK
Briefly: Cell Based Phenylalanine Flux Assay. Particulars: A375 R408W cells; 24 hrs with compound, then 20 μM sepiapterin and 800 μM 13C9,15N-Phenylalanine for 4 hours; 13C-Tyrosine by LC-MS; average where tested multiple times. In a few lines:
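LC-MS quantitation of 13C-tyrosine in media gave AC50 values. Stable A375 R408W PAH cells were preincubated 24 h with compound, then fed 800 μM labelled Phe plus 20 μM sepiapterin for 4 h. Dose curves were 10-point, tested in duplicate, averaged over repeat runs.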

The structures appear in SMILES notation. Where only a bound is given, the exact number is not on record here.

As for `Cc1cc(F)c2oc([C@@H]3c4nc[nH]c4CCN3C(=O)c3ocnc3C(F)F)nc2c1` [Example 501, (S)-(4-(difluoromethyl)oxazol-5-yl)(4-(7-fluoro-5-methylbenzo[d]oxazol-2-yl)-6,7-dihydro-1H-imidazo[4,5-c]pyridin-5(4H)-yl)methanone], the AC50 is at most 500 nM.

What is called AC50 is the concentration at which the activity in the assay is half-maximal.
